Assay results from patent US11214803B2, “Modulators of YAP1 expression” (Ionis Pharmaceuticals, Inc., priority 2019, dated 2022).
Strand notation (5' to 3'): a small letter for the sugar, then the base; units joined by * are phosphorothioate-linked, units joined directly phosphodiester-linked; [ ] holds rarer units or linkages, { } end groups; capitals alone tell only the bases. e = 2'-O-(2-methoxyethyl) (MOE); k = constrained ethyl (cEt); [5mC] = 5-methylcytosine; d = 2'-deoxy (DNA); m = 2'-O-methyl

Tested on: Yap1 mRNA
Test: Antisense inhibition of human Yap1 in SNU-449 cells by modified oligonucleotides, single dose (Example 5, RTS36584)
Assay type: cell-based
Conditions: Table 39; SNU-449 cells, 10,000 cells per well, free uptake, 2,000 nM oligonucleotide, approx. 48 hours; RTS36584; normalized to RIBOGREEN; Yap1 mRNA relative to untreated control
Outline: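 Free uptake, 2,000 nM, ~48 h, SNU-449 at 10,000 cells/well. Read-out: qRT-PCR (RTS36584), RIBOGREEN-normalised, expressed as % UTC. Asterisk = oligo hits amplicon region.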

| Substance | YAP1 (% UTC) |
| --- | --- |
| 1198381 (kT*dA*dG*dA*dG*dT*dA*dT*dG*dT*dG*kG*e[5mC]*kA*eA*kT; antisense) [Compound 1198381] | 19 |

Same assay, conditions: Table 40 (separate experiment); SNU-449 cells, 10,000 cells per well, free uptake, 2,000 nM oligonucleotide, approx. 48 hours; RTS36584; normalized to RIBOGREEN; Yap1 mRNA relative to untreated control

| Substance | YAP1 (% UTC) |
| --- | --- |
| 1198745 (k[5mC]*eA*k[5mC]*dT*dT*dT*dT*dA*d[5mC]*dA*dT*dT*eA*eG*kG*kA; antisense) [Compound 1198745] | 57 |
| 1198748 (kA*eA*kG*d[5mC]*dA*d[5mC]*dT*dT*dT*dT*dA*d[5mC]*eA*eT*kT*kA; antisense) [Compound 1198748] | 81 |
| 1198799 (antisense k[5mC]*eT*kA*dA*dG*dT*dA*dA*dG*dG*dT*dT*eT*e[5mC]*k[5mC]*k[5mC]) [Compound 1198799] | 18 |
| 1198425 (kA*d[5mC]*dT*d[5mC]*dT*dT*dA*dT*dA*dT*dG*kG*eT*kT*eT*kT; antisense) [Compound 1198425] | 35 |

Same assay, conditions: Table 41; SNU-449 cells, 10,000 cells per well, free uptake, 2,000 nM modified oligonucleotide, approximately 48 hours; RTS36584; normalized to RIBOGREEN; Yap1 mRNA relative to untreated control cells

| Substance | YAP1 (% UTC) |
| --- | --- |
| 1198688 (antisense kA*kT*dA*dT*dT*dG*d[5mC]*dA*dA*dT*d[5mC]*dT*kG*eT*k[5mC]*eT) [Compound 1198688] | 48 |
| 1198789 (antisense kA*eA*kA*dG*dT*dG*dT*dA*dT*dG*dT*d[5mC]*eA*eG*kA*kA) [Compound 1198789] | 22 |

Same assay, conditions: Table 42 (separate experiment); SNU-449 cells, 10,000 cells per well, free uptake, 2,000 nM modified oligonucleotide, approximately 48 hours; RTS36584; normalized to RIBOGREEN; Yap1 mRNA relative to untreated control cells

| Substance | YAP1 (% UTC) |
| --- | --- |
| 1198228 (kA*kA*dG*d[5mC]*dA*d[5mC]*dT*dT*dT*dT*dA*e[5mC]*eA*eT*kT*kA) [Compound 1198228] | 54 |
| 1198695 (antisense kT*kT*dT*dA*dT*dG*dT*dA*dA*dT*dA*dT*kT*eG*k[5mC]*eA) [Compound 1198695] | 75 |

Same assay, conditions: Table 43 experiment; SNU-449 cells, 10,000 cells per well, free uptake, 2,000 nM, approximately 48 hours; RTS36584; Yap1 mRNA normalized to RIBOGREEN, relative to untreated control cells

| Substance | YAP1 (% UTC) |
| --- | --- |
| 1198255 (k[5mC]*kA*dA*d[5mC]*dT*d[5mC]*dT*dT*dA*dT*dA*eT*eG*eG*kT*kT; antisense) [Compound 1198255] | 84 |

Same assay, conditions: Table 44 experiment; SNU-449 cells, 10,000 cells per well, free uptake, 2,000 nM, approximately 48 hours; RTS36584; Yap1 mRNA normalized to RIBOGREEN, relative to untreated control cells

| Substance | YAP1 (% UTC) |
| --- | --- |
| 1198499 (kT*kT*dT*dA*dG*dG*dA*dT*dG*d[5mC]*dA*eT*kG*eG*kT*eT; antisense) [Compound 1198499] | 13 |
| 1198522 (kT*kA*dT*dG*dT*dA*dA*dT*dA*dT*dT*eG*k[5mC]*eA*kA*eT; antisense) [Compound 1198522] | 37 |
| 1198907 (kT*k[5mC]*dT*dA*dT*dA*dT*dT*dA*dG*dA*kG*dT*kA*dT*kG; antisense) [Compound 1198907] | 74 |
| 1198906 (kT*kA*dT*dA*dT*dT*dA*dG*dA*dG*dT*kA*dT*kG*dT*kG; antisense) [Compound 1198906] | 56 |
| 1095622 (antisense k[5mC]*kT*dG*dA*dG*dG*dT*dA*dT*dA*dA*e[5mC]*kT*eG*kG*eG) [Compound 1095622] | 44 |

Same assay, conditions: Table 45; Yap1 mRNA as percent of untreated control, SNU-449 cells, single dose

| Substance | YAP1 (% UTC) |
| --- | --- |
| 1198951 (kA*kA*dT*dA*dT*dT*dG*d[5mC]*dA*dA*dT*k[5mC]*dT*kG*dT*k[5mC]; antisense) [Compound 1198951] | 81 |
| 1198952 (kT*kA*dA*dT*dA*dT*dT*dG*d[5mC]*dA*kA*kT*d[5mC]*kT*dG*kT; antisense) [Compound 1198952] | 77 |
| 1198972 (kA*k[5mC]*dT*dA*dA*dG*dT*dA*dA*dG*dG*kT*dT*kT*d[5mC]*k[5mC]; antisense) [Compound 1198972] | 46 |
| 1198925 (k[5mC]*kT*dT*dT*dG*dG*dA*dA*dG*dA*dT*k[5mC]*dT*kG*dA*kA; antisense) [Compound 1198925] | 52 |

Same assay, conditions: Table 46; Yap1 mRNA as percent of untreated control, SNU-449 cells, single dose

| Substance | YAP1 (% UT) |
| --- | --- |
| 1198885 (k[5mC]*kT*dA*dA*dG*dT*dA*dA*dG*dG*dT*kT*eT*k[5mC]*e[5mC]*k[5mC]; antisense) [Compound 1198885] | 41 |
| 1198841 (kT*kG*d[5mC]*dT*dT*dT*dG*dG*dA*dA*dG*kA*eT*k[5mC]*eT*kG; antisense) [Compound 1198841] | 116 |
| 1198829 (k[5mC]*kT*dT*dT*dT*dA*d[5mC]*dA*dT*dT*dA*kG*eG*kA*eA*k[5mC]; antisense) [Compound 1198829] | 36 |

Same assay, conditions: Table 48; Yap1 mRNA level relative to untreated control; modified oligonucleotides targeting SEQ ID NO.: 1 and 2

| Substance | YAP1 (% UT) |
| --- | --- |
| 1198294 (kA*kG*kA*dG*dT*dA*dT*dG*dT*dG*dG*d[5mC]*kA*eA*kT*eA; antisense) [Compound 1198294] | 13 |
| 1198289 (kG*kG*kA*dA*dA*dT*dT*dG*dT*d[5mC]*dT*d[5mC]*kA*eT*kG*e[5mC]; antisense) [Compound 1198289] | 12 |
| 1197204 (antisense k[5mC]*kA*kA*d[5mC]*dT*d[5mC]*dT*dT*dA*dT*dA*dT*dG*kG*kT*kT) [Compound 1197204] | 89 |
| 1197202 (antisense kA*k[5mC]*kT*d[5mC]*dT*dT*dA*dT*dA*dT*dG*dG*dT*kT*kT*kT) [Compound 1197202] | 27 |
| 1198346 (kT*kA*kA*dT*dA*dT*dT*dG*d[5mC]*dA*dA*dT*k[5mC]*eT*kG*eT; antisense) [Compound 1198346] | 40 |
| 1198321 (kT*kG*k[5mC]*dT*dT*dT*dG*dG*dA*dA*dG*dA*kT*e[5mC]*kT*eG; antisense) [Compound 1198321] | 45 |

Same assay, conditions: Table 49; Yap1 mRNA level relative to untreated control; modified oligonucleotides targeting SEQ ID NO.: 1 and 2

| Substance | YAP1 (% UT) |
| --- | --- |
| 1198305 (kG*kA*kG*dG*dT*dA*dT*dA*dA*d[5mC]*dT*dG*kG*eG*k[5mC]*eA; antisense) [Compound 1198305] | 78 |
| 1198584 (antisense TTAGGATGCATGGTTT; chemistry not fully specified) [Compound 1198584] | 37 |
| 1198546 (antisense kG*kA*kA*dA*dT*dT*dG*dT*d[5mC]*dT*d[5mC]*dA*kT*kG*k[5mC]*e[5mC]) [Compound 1198546] | 11 |
| 1198342 (kG*kA*k[5mC]*dA*dA*d[5mC]*dT*d[5mC]*dT*dT*dA*dT*kA*eT*kG*eG; antisense) [Compound 1198342] | 101 |
| 1198545 (antisense kA*kA*kA*dT*dT*dG*dT*d[5mC]*dT*d[5mC]*dA*dT*kG*k[5mC]*k[5mC]*eT) [Compound 1198545] | 32 |

Same assay, conditions: Table 50; Yap1 mRNA remaining as percent of untreated control (UT), SNU-449 cells, single dose

| Substance | YAP1 (% UT) |
| --- | --- |
| 1197232 (antisense kA*kT*kA*dT*mG*dG*dA*dA*dA*dT*dT*dG*dT*k[5mC]*kT*k[5mC]) [Compound 1197232] | 55 |
| 1198611 (antisense kA*kG*kT*dG*dT*dA*dT*dG*dT*d[5mC]*dA*dG*kA*kA*kG*eA) [Compound 1198611] | 7 |
| 1197231 (antisense kA*kT*kG*dG*mA*dA*dA*dT*dT*dG*dT*d[5mC]*dT*k[5mC]*kA*kT) [Compound 1197231] | 50 |
| 1198598 (antisense kA*kA*k[5mC]*dT*d[5mC]*dT*dT*dA*dT*dA*dT*dG*kG*kT*kT*eT) [Compound 1198598] | 76 |

Same assay, conditions: Table 51; Yap1 mRNA remaining as percent of untreated control (UT), SNU-449 cells, single dose

| Substance | YAP1 (% UT) |
| --- | --- |
| 1197303 (k[5mC]*kT*kT*dA*mU*dA*dT*dG*dG*dT*dT*dT*dT*kG*kT*kG; antisense) [Compound 1197303] | 72 |

Same assay, conditions: Table 52; Yap1 mRNA, modified oligonucleotides targeting SEQ ID NO: 1 and 2

| Substance | YAP1 (% UT) |
| --- | --- |
| 1200823 (k[5mC]*kT*kT*dT*dG*mG*dA*dA*dG*dA*dT*d[5mC]*dT*kG*kA*kA; antisense) [Compound 1200823] | 46 |
| 1200856 (kT*kG*kT*dA*dT*mG*dT*d[5mC]*dA*dG*dA*dA*dG*kA*kG*kT; antisense) [Compound 1200856] | 29 |
| 1200857 (kA*kG*kT*dG*dT*mA*dT*dG*dT*d[5mC]*dA*dG*dA*kA*kG*kA; antisense) [Compound 1200857] | 4 |
| 1200860 (kT*kA*kA*dA*dG*mU*dG*dT*dA*dT*dG*dT*d[5mC]*kA*kG*kA; antisense) [Compound 1200860] | 16 |

Same assay, conditions: Yap1 mRNA, percent of untreated control; modified oligonucleotides targeting SEQ ID NO: 1 and 2; Table 47

| Substance | YAP1 (% UT) |
| --- | --- |
| 1009324 (kA*kG*kT*dA*dT*dG*dT*dG*dG*d[5mC]*dA*dA*dT*kA*kA*kT; antisense) [Compound 1009324] | 27 |
| 1198873 (kA*kG*dT*dG*dT*dA*dT*dG*dT*d[5mC]*dA*kG*eA*kA*eG*kA; antisense) [Compound 1198873] | 4 |
| 1096369 (antisense kG*kT*kG*d[5mC]*dT*dT*dT*dG*dG*dA*dA*dG*dA*kT*k[5mC]*kT) [Compound 1096369] | 45 |
